One may read the IC50 as the concentration that gives 50% inhibition.

IC50 data for 29 molecules are collected here from patent publication US20060264419A1 (priority 2003, published 2006).

Molecules are shown by their SMILES.

For one assay, the target named is 5-HT2A receptors (Rattus norvegicus, UniProt P14842). As to the kind of experiment: in-vitro affinity to 5-HT2A receptors, displacement of [3H]ketanserine (Example A1). As to conditions: read-out: HT2A IC50. In kind it is binding. From the text: The 5-HT2A receptors are exposed both to [^3H]ketanserine (a substance which is known for its affinity to the receptor) and also to the test compound. The decrease in the affinity of [^3H]ketanserine to the receptor is an indication of the affinity of the test substance to the 5-HT2A receptor.
5-HT2A receptors, sequence (P14842 whole entry): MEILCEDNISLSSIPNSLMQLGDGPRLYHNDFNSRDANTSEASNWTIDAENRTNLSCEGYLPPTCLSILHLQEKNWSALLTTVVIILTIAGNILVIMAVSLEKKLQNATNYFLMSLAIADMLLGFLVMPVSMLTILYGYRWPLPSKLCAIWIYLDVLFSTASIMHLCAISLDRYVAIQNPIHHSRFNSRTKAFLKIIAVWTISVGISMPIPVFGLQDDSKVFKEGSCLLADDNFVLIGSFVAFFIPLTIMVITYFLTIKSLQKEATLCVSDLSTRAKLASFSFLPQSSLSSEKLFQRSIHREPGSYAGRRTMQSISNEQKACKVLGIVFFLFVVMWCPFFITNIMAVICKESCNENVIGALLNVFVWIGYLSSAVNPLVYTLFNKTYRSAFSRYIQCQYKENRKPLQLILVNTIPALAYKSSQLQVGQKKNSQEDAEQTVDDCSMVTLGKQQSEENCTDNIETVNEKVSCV
Background: In a radioligand displacement assay an active substance lowers the binding of a labelled ligand.

A further assay concerns the target T1, 5 HT2C receptor (Homo sapiens, UniProt P28335).
T1 sequence (P28335 33-458): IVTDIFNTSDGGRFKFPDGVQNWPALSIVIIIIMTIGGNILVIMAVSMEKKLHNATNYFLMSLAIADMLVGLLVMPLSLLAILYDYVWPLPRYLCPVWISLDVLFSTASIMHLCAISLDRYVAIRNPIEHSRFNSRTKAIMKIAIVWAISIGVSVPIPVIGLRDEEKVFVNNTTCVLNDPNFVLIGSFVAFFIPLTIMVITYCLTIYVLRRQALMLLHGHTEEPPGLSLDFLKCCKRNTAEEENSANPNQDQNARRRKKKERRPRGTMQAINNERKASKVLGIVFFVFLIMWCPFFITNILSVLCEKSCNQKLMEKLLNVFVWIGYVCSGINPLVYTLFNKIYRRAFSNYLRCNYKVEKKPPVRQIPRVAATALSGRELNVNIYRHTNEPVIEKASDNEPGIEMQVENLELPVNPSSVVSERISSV
As to the kind of experiment: affinity to the 5 HT2C receptor. In kind it is binding.

As to `CCN1CCCC1CNCc1cnn(-c2ccc(-c3ccccc3)cc2)c1-c1ccccc1F` (stereo not shown) [Example 947, [1-Biphenyl-4-yl-5-(2-fluorophenyl)-1H-pyrazol-4-ylmethyl]-(1-ethyl-pyrrolidin-2-yl-methyl)amine], the results for the IC50 on 5-HT2A receptors and at 5 HT2C receptor were 46.9 nM and 1000 nM, respectively.

Turning to `CN1CCN(Cc2cnn(-c3ccc(-c4ccccc4)cc3)c2-c2ccccn2)CC1` [Example 949, 1-(1-Biphenyl-4-yl-5-pyridin-2-yl-1H-pyrazol-4-ylmethyl)-4-methylpiperazine], the results for the IC50 at 5-HT2A receptors and at 5 HT2C receptor were 50 nM and 1000 nM, respectively.

Turning to `CCN(CC)Cc1cnn(-c2ccc(-c3ccc(F)cc3)cc2)c1-c1ccccc1Cl` [Example 951, [5-(2-Chlorophenyl)-1-(4′-fluoro-biphenyl-4-yl)-1H-pyrazol-4-ylmethyl]diethylamine], the IC50 was 53 nM on 5-HT2A receptors and 1000 nM on 5 HT2C receptor.

Regarding `CN1CCN(Cc2cnn(-c3ccc(-c4ccc(C#N)cc4)cc3)c2-c2ccccc2F)CC1` [Example 952, 4′-[5-(2-Fluorophenyl)-4-(4-methyl-piperazin-1-ylmethyl)pyrazol-1-yl]biphenyl-4-carbonitrile], the figures for the IC50 on 5-HT2A receptors and at 5 HT2C receptor were 53 nM and 790 nM, respectively.

As to `CN1CCN(Cc2cnn(-c3ccc(-c4cc(F)ccc4F)cc3)c2-c2ccccc2F)CC1` [Example 953, 1-[1-(2′,5′-Difluorobiphenyl-4-yl)-5-(2-fluoro-phenyl)-1H-pyrazol-4-ylmethyl]-4-methyl-piperazine], the IC50 was determined as 55 nM on 5-HT2A receptors and 470 nM against 5 HT2C receptor.

In the case of `CC(C)c1ccc(-c2ccc(-n3ncc(CN4CCN(C)CC4)c3-c3ccccc3F)cc2)cc1` [Example 958, 1-[5-(2-Fluorophenyl)-1-(4′-isopropylbiphenyl-4-yl)-1H-pyrazol-4-ylmethyl]-4-methyl-piperazine], the results for the IC50 on 5-HT2A receptors and on 5 HT2C receptor were 58.1 nM and 830 nM, respectively.

Consider `CN1CCN(Cc2cnn(-c3ccc(-c4ccc(F)c(F)c4)cc3)c2-c2ccccc2F)CC1` [Example 960, 1-[1-(3′,4′-Difluorobiphenyl-4-yl)-5-(2-fluoro-phenyl)-1H-pyrazol-4-ylmethyl]-4-methyl-piperazine], for which the IC50 worked out at 60 nM on 5-HT2A receptors and 340 nM against 5 HT2C receptor.

Take `O=C1CCCN1CCCNCc1cnn(-c2ccc(-c3ccccc3)cc2)c1-c1ccccc1F` [Example 961, 1-(3-{[1-Biphenyl-4-yl-5-(2-fluoro-phenyl)-1H-pyrazol-4-ylmethyl]amino}propyl)pyrrolidin-2-one]: the IC50 is 64 nM at 5-HT2A receptors and 1000 nM at 5 HT2C receptor.

`Fc1ccccc1-c1c(CN2CCc3ccccc3C2)cnn1-c1ccc(-c2ccccc2)cc1` [Example 964, 2-[1-Biphenyl-4-yl-5-(2-fluoro-phenyl)-1H-pyrazol-4-ylmethyl]-1,2,3,4-tetrahydro-iso-quinoline]: the values for the IC50 on 5-HT2A receptors and against 5 HT2C receptor were 70 nM and 1000 nM, respectively.

Turning to `CN1CCN(Cc2cnn(-c3ccc(-c4ccc(F)cc4)cc3)c2-c2ccccc2Cl)CC1` [Example 965, 1-[5-(2-Chlorophenyl)-1-(4′-fluoro-biphenyl-4-yl)-1H-pyrazol-4-ylmethyl]-4-methylpiperazine], the concentration for half-maximal inhibition (IC50) worked out at 72 nM on 5-HT2A receptors and 600 nM on 5 HT2C receptor.

Take `Fc1ccccc1-c1c(CNCc2nc3ccccc3[nH]2)cnn1-c1ccc(-c2ccccc2)cc1` [Example 969, (1H-Benzoimidazol-2-ylmethyl)-[1-biphenyl-4-yl-5-(2-fluorophenyl)-1H-pyrazol-4-ylmethyl]-amine]: the IC50 is 76 nM on 5-HT2A receptors and 1000 nM on 5 HT2C receptor.

For the molecule `CC(C)(C)OC(=O)N1CCN(Cc2cnn(-c3ccc(-c4ccccc4)cc3)c2-c2ccccc2F)CC1` [Example 971, tert-Butyl 4-[1-biphenyl-4-yl-5-(2-fluoro-phenyl)-1H-pyrazol-4-ylmethyl]piperazine-1-carboxylate], the IC50 was 82 nM at 5-HT2A receptors and 1000 nM against 5 HT2C receptor.

Regarding `CCN1CCN(Cc2cnn(-c3ccc(-c4ccc(F)cc4)cc3)c2-c2ccccc2Cl)CC1` [Example 975, 1-[5-(2-Chlorophenyl)-1-(4′-fluoro-biphenyl-4-yl)-1H-pyrazol-4-ylmethyl]-4-ethylpiperazine], the IC50 stood at 88 nM at 5-HT2A receptors and 1000 nM against 5 HT2C receptor.

In the case of `CN1CCN(Cc2cnn(-c3ccc(-c4ccccc4F)cc3)c2-c2ccccc2F)CC1` [Example 976, 1-[1-(2′-Fluorobiphenyl-4-yl)-5-(2-fluoro-phenyl)-1H-pyrazol-4-ylmethyl]-4-methyl-piperazine], the IC50 is 93 nM on 5-HT2A receptors and 371 nM at 5 HT2C receptor.

As for `CN1CC2CC1CN2Cc1cnn(-c2ccc(-c3ccccc3)cc2)c1-c1ccccc1F` (stereo not shown) [Example 977, 2-[1-Biphenyl-4-yl-5-(2-fluorophenyl)-1H-pyrazol-4-ylmethyl]-5-methyl-2,5-diazabicyclo-[2.2.1]heptane], the IC50 at 5-HT2A receptors stood at 94 nM; against 5 HT2C receptor, 680 nM.

Consider `CN1CCN(Cc2cnn(-c3ccc(-c4cc(F)ccc4F)cc3)c2-c2ccccc2)CC1` [Example 981, 1-[1-(2′,5′-Difluorobiphenyl-4-yl)-5-phenyl-1H-pyrazol-4-ylmethyl]-4-methylpiperazine], for which the IC50 at 5-HT2A receptors turned out to be 110 nM; against 5 HT2C receptor, 1000 nM.

Turning to `CC(C)c1ccc(-n2ncc(CN3CCN(C)CC3)c2-c2ccccc2F)cc1` [Example 983, 1-[5-(2-Fluorophenyl)-1-(4-isopropylphenyl)-1H-pyrazol-4-ylmethyl]-4-methylpiperazine], the IC50 stood at 120 nM at 5-HT2A receptors and 520 nM against 5 HT2C receptor.

Take `CN1CCN(Cc2cnn(-c3ccc(C(F)(F)F)cc3)c2-c2ccccc2F)CC1` [Example 990, 1-[5-(2-Fluorophenyl)-1-(4-trifluoro-methyl-phenyl)-1H-pyrazol-4-ylmethyl]-4-methyl-piperazine]: the IC50 on 5-HT2A receptors turned out to be 133 nM; against 5 HT2C receptor, 490 nM.

Turning to `CC(C)N1CCN(Cc2cnn(-c3ccc(-c4ccc(F)cc4)cc3)c2-c2ccccc2Cl)CC1` [Example 997, 1-[5-(2-Chlorophenyl)-1-(4′-fluoro-biphenyl-4-yl)-1H-pyrazol-4-ylmethyl]-4-isopropylpiperazine], the IC50 at 5-HT2A receptors is 160 nM; against 5 HT2C receptor, 1000 nM.

Consider `OC1CCN(Cc2cnn(-c3ccc(-c4ccc(F)cc4)cc3)c2-c2ccc(Cl)cc2)C1` (stereo not shown) [Example 1003, 1-[5-(4-Chlorophenyl)-1-(4′-fluoro-biphenyl-4-yl)-1H-pyrazol-4-ylmethyl]pyrrolidin-3-ol], for which the IC50 at 5-HT2A receptors stood at 170 nM; on 5 HT2C receptor, 1000 nM.

With `CN1CCN(Cc2cnn(-c3ccc(-c4ccccc4F)cc3)c2-c2ccc(F)cc2)CC1` [Example 1013, 1-[1-(2′-Fluorobiphenyl-4-yl)-5-(4-fluoro-phenyl)-1H-pyrazol-4-ylmethyl]-4-methyl-piperazine], the IC50 at 5-HT2A receptors was 210 nM; against 5 HT2C receptor, 1000 nM.

For `CCN(CC)Cc1cnn(-c2ccc(-c3ccc(F)cc3)cc2)c1-c1ccc(Cl)cc1` [Example 1016, [5-(4-Chlorophenyl)-1-(4′-fluoro-biphenyl-4-yl)-1H-pyrazol-4-ylmethyl]diethylamine], the figures for the IC50 at 5-HT2A receptors and against 5 HT2C receptor were 220 nM and 1000 nM, respectively.

For `O=C(c1ccc(F)cc1)C1CCN(Cc2cnn(-c3ccc(-c4ccc(F)cc4)cc3)c2-c2ccccc2Cl)CC1` [Example 1019, 1-{1-{5-(2-Chlorophenyl)-1-(4′-fluoro-biphenyl-4-yl)-1H-pyrazol-4-ylmethyl]piperidin-4-yl}-1-(4-fluorophenyl)methanone], the IC50 at 5-HT2A receptors is 230 nM; against 5 HT2C receptor, 40 nM.

Consider `CN1CCN(Cc2cnn(-c3ccc(-c4cc(F)ccc4F)cc3)c2-c2ccc(F)cc2)CC1` [Example 1021, 1-[1-(2′,5′-Difluorobiphenyl-4-yl)-5-(4-fluoro-phenyl)-1H-pyrazol-4-ylmethyl]-4-methyl-piperazine], for which the IC50 at 5-HT2A receptors was determined as 240 nM; against 5 HT2C receptor it was 1000 nM.

For the molecule `Fc1ccccc1-c1c(CNc2ccon2)cnn1-c1ccc(-c2ccccc2)cc1` [Example 1022, [1-Biphenyl-4-yl-5-(2-fluorophenyl)-1H-pyrazol-4-ylmethyl]isoxazol-3-ylamine], the concentration for half-maximal inhibition (IC50) was 240 nM on 5-HT2A receptors and 1000 nM on 5 HT2C receptor.

`CN(C)CCN(C)Cc1cnn(-c2ccc(-c3ccc(F)cc3)cc2)c1-c1ccc(Cl)cc1` [Example 1024, N-[5-(4-Chlorophenyl)-1-(4′-fluoro-biphenyl-4-yl)-1H-pyrazol-4-ylmethyl]-N,N′,N′-trimethyl-ethane-1,2-diamine]: the figures for the IC50 at 5-HT2A receptors and against 5 HT2C receptor were 240 nM and 1000 nM, respectively.

Turning to `Fc1ccc(-c2ccc(-n3ncc(CN4CCN(C5CCCC5)CC4)c3-c3ccccc3Cl)cc2)cc1` [Example 1027, 1-[5-(2-Chlorophenyl)-1-(4′-fluoro-biphenyl-4-yl)-1H-pyrazol-4-ylmethyl]-4-cyclopentylpiperazine], the IC50 came out at 260 nM on 5-HT2A receptors and 1000 nM on 5 HT2C receptor.

For the molecule `CN1CCN(Cc2cnn(-c3ccc(OC(F)(F)F)cc3)c2-c2ccccc2F)CC1` [Example 1029, 1-[5-(2-Fluorophenyl)-1-(4-trifluoromethoxy-phenyl)-1H-pyrazol-4-ylmethyl]-4-methyl-piperazine], the IC50 at 5-HT2A receptors is 270 nM; at 5 HT2C receptor it was 490 nM.

Turning to `CN1CCN(Cc2cnn(-c3ccc(-c4ccccc4)cc3)c2-c2cccnc2)CC1` [Example 1035, 1-(1-Biphenyl-4-yl-5-pyridin-3-yl-1H-pyrazol-4-ylmethyl)-4-methylpiperazine], the results for the IC50 on 5-HT2A receptors and on 5 HT2C receptor were 290 nM and 1000 nM, respectively.
